Experimental data from US11638401B2, “Methods and compositions for increasing tolerance to abiotic stress in plants” (priority 2018, dated 2023).

Experiments:
Soybean [1] = assay: Soybean Trial 2018, field trial; type: in vivo; details: Soybean 2018, Elm City N.C.; Photon 8 g ai/A, Aminoguanidine 2 g ai/A; control 22.3; LSD 0.05 3.8
Text: (§1) In the table below, the treatment labeled “Photon” represents a mixture of azelaic, sebacic, undecanedioic, acids. It is predominantly azelaic acid, and equal parts of the remaining two major constituents. Abbreviations: ai=active ingredient, A=acre, ha=hectare, lbs=pounds, MT=metric ton • Soybean Trial 2018 • Elm City N.C. • Randomized complete block with 5 replicates

Soybean [2] = assay: Soybean - Two Year Summary, field trials; type: in vivo; details: Photon 8 g ai/A, Aminoguanidine 2 g ai/A, control 38.9, LSD 0.01 3.9
Text: as §1

N=C(N)NN [Aminoguanidine, aminoguanidine]
Yield (bu/A) (Soybean [1]): 24.3 bu/A | Yield (bu/A) (Soybean [2]): 42.5 bu/A
